Here are results for 2 molecules from ChEMBL document CHEMBL1201862, “PubChem BioAssay data set” (2004).

Test systems include 786-0; A498; BT-549; CAKI-1; EKVX; HCT-116; HT-29; IGROV-1; MCF7; MOLT-4; NCI-H226; NCI-H23; NCI-H522; OVCAR-4; OVCAR-8; RPMI-8226; SK-MEL-28; SNB-75; TK-10; U-251.
Holding throughout (experiment): inhibition of tumour cell growth, NCI panel, 48 h

The structures appear in SMILES notation.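 Each compound was tested at five concentrations against cells in 96-well plates for 48 hours. The concentration for 50% growth inhibition is given as GI50.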 Active and inactive are the calls of the source. No stated cut-off is given here; in the data, active = GI50 up to about 1.1 µM and inactive = higher.

For the molecule `COC(=O)C12OCC34C(CC5C(C)=C(O)C(=O)CC5(C)C3C(O)C1O)OC(=O)C(OC(=O)C=C(C)C)C24` (stereo not given), the GI50 is 0.275 µM (active) in the assay on 786-0; > 500 µM (inactive) in the assay with A498; 0.26 µM (active) in the assay on BT-549; > 500 µM (inactive) in the assay with CAKI-1; > 469 µM (inactive) with EKVX; > 489 µM (inactive) in the assay on HCT-116. Besides, the GI50 is > 500 µM (inactive) with HT-29; 330 µM (inactive) with IGROV-1; 256 µM (inactive) in the assay on MCF7; 297 µM (inactive) with MOLT-4; 436 µM (inactive) in the assay on NCI-H226; > 469 µM (inactive) in the assay with NCI-H23. Besides, the GI50 with NCI-H522 is 301 µM (inactive); with OVCAR-4, < 0.215 µM (active); with OVCAR-8, > 500 µM (inactive); in the assay on RPMI-8226 it was 361 µM (inactive); in the assay with SK-MEL-28, 423 µM (inactive); in the assay on SNB-75, 318 µM (inactive). Further, the values for the GI50 with TK-10 and with U-251 were < 0.215 µM (active) and 316 µM (inactive), respectively.
On to `COc1cc2c(cc1OC)C13CCN4CC5=CCOC6CC(=O)N2C1C6C5CC43O` (stereo not given), for which the GI50 with 786-0, in the assay on A498, with BT-549, in the assay on CAKI-1, with EKVX and with HCT-116 was > 100 µM (inactive) each time. For the same molecule, the GI50 in the assay on HT-29, in the assay with IGROV-1, with MCF7, in the assay on MOLT-4, with NCI-H226 and in the assay with NCI-H23 was > 100 µM (inactive) in each case. Also, the GI50 with NCI-H522, with OVCAR-4, with OVCAR-8, in the assay with RPMI-8226, in the assay with SK-MEL-28 and in the assay with SNB-75 was > 100 µM (inactive) in each case. In addition, the GI50 in the assay on TK-10 and in the assay on U-251 was > 100 µM (inactive) throughout.
